Reference: patent US7632413B2, “Process for treating a liquid medium using ultrasound” (Ashland Licensing and Intellectual Property LLC, priority 2002, dated 2009)

Tested on: K562 cells
Experiment: Annexin-V/PI assay of ultrasonically induced apoptosis in the presence of active oxygen scavengers
Assay type: cell-based, Human
Details: L-histidine 10 mM and/or mannitol 100 mM; for percentage of cells displaying phosphatidylserine externalization: 5 hours post-treatment, mean ± SEM, 4 experiments
Description: Human leukemia cell lines (K562, Nalm-6, KG1a, and HL-60) obtained from the American Type Culture Collection (ATCC, Rockville, Md., USA) were grown in RPMI-1640 (BioWhittaker, Walkersville, Md., USA) supplemented with 10% fetal calf serum (Gibco, Grand Island, N.Y., USA) and 1% L-glutamine (Gibco). Leukemic cells were harvested, resuspended in phosphate-buffered saline (PBS, pH=7.2, Gibco), and immediately used for the experiment. Heparinized venous blood was obtained from healthy volunteers and leukemic patients. Mononuclear cells were separated by Ficoll-Hypaque gradient density centrifugation (International Medical Products, Brussels, Belgium). The following describes the ultrasonic treatment on the cells. Human leukemia cell lines (K562, HL-60, KG1a, and Nalm-6), primary leukemic cells, and normal mononuclear cells were treated by ultrasound at a frequency of 1.8 MHz during various exposure times at an acoustical power of 7 mW/mL and irradiation (ON/OFF) cycles of 5.5 ms/3 ms. During apoptosis, phosphatidylserine residues flip from the inside to the outside of the plasma membrane and this change can be detected using Annexin-FITC, which binds to the PS residues. The following describes an Annexin V binding assay that was performed. Flow cytometric analysis of Annexin-V-fluorescein isothiocyanate (FITC)-and propidium iodide (PI)-stained cells was performed using the kit purchased from Biosource International (Camarillo, Calif., USA) as recommended by the manufacturer. Data were presented as dot plots showing the change in mean fluorescence intensity of Annexin-V-FITC/propidium iodide (not shown). The following procedure was performed to determine the effect of active oxygen scavengers on the induction of apoptosis by high-frequency ultrasound. K562 cells were incubated with L-histidine (10 mM) and/or mannitol (100 mM). Some cells were treated by high-frequency ultrasound and others were not. Cell apoptosis was detected by an Annexin-V/PI assay.

## N[C@@H](Cc1c[nH]cn1)C(=O)O [Histidine, L-histidine]
1 US treatment
  percentage of cells displaying phosphatidylserine externalization: 24 ± 8%
3 US treatments
  percentage of cells displaying phosphatidylserine externalization: 36 ± 11%
No US treatment
  percentage of cells displaying phosphatidylserine externalization: 15 ± 5%
Apoptosis induced by 3 successive ultrasound treatments
  inhibition of apoptosis: 43%

## OC[C@@H](O)[C@@H](O)[C@H](O)[C@H](O)CO [Mannitol, mannitol]
1 US treatment
  percentage of cells displaying phosphatidylserine externalization: 21 ± 5%
3 US treatments
  percentage of cells displaying phosphatidylserine externalization: 30 ± 3%
Homo sapiens, K562, apoptosis induced by 3 successive ultrasound treatments
  inhibition at 100000 µM: 47%
No US treatment
  percentage of cells displaying phosphatidylserine externalization: 11 ± 4%
